The results in this text go back to paper PMC11314561, “Design and Synthesis of Novel Aminoindazole-pyrrolo[2,3-b]pyridine Inhibitors of IKKα That Selectively Perturb Cellular Non-Canonical NF-κB Signalling” (Molecules, 2024).

In brackets after ≈: the same amount, converted by molar mass.

For orientation: IC50 means the midpoint of a concentration-inhibition curve. By solubility is commonly meant the dissolved amount per volume that the medium holds. Low values mean little dissolved substance, high ones much dissolved substance. As usually defined, the inhibition is the change of the read-out against control, counted positive when it falls.

The subject of data set [1] is p100 phosphorylation (Ser866/870) in PC-3M cells. The data set is described as follows: LTα1β2-stimulated p100 phosphorylation, Western blotting. The conditions noted are these: Homo sapiens, 1 h pre-treatment, LTα1β2 4 h. Format: cell-based. Here is the method:
(§1) U2OS cells were cultured in McCoy’s 5A Modified Medium, and PC-3M-Luc-C6 prostate cancer cells were cultured in Minimum Essential Medium (MEM), each containing 10% (v/v) Foetal Calf Serum (FCS), L-glutamine ([…]), and penicillin/streptomycin (250 units/mL; 100 μg/mL) and incubated in a humidified atmosphere at 37 °C with 5% (v/v) CO2. Cells were grown to near confluence and prior to experimentation rendered quiescent by serum deprivation for 24 h.
For examination of potential effects of compound on non-canonical NF-κB signalling, cells were exposed to vehicle (DMSO; 0.03–0.05% (v/v)) or increasing concentrations of compounds (0.01–30 µM) for 1 h prior to treatment with FCS (10% (v/v); for U2OS cells) or LTα1β2 (20 ng/mL; for PC-3M cells) for 4 h. The status of p-p100 (Ser 866/870) in whole-cell extracts prepared from 12-well plates was assessed by Western blotting, as described in McKenzie et al.. […] Thereafter, p52 and RelB status in crude nuclear extracts normalised for protein amounts were assessed by Western blotting.
Each figure/panel of Western blotting data represents one of at least three separate experiments. Western blots were scanned and imaged using Adobe Photoshop 5.0.2 software and polypeptide bands were semi-quantified by scanning densitometry using the Scion Image program. […]
(In general: Immunoblotting shows a protein as a band on a membrane.)

The test system of data set [2] is IκBα degradation in PC-3M cells. The data set is described as follows: TNFα-stimulated IκBα degradation, Western blotting. It counts as cell-based. The conditions noted are these: for effect on TNFα-stimulated IκBα degradation: PC-3M cells, 0.1–10 µM. As to the method:
as §1
(§2) To examine the potential impact of compounds on canonical NF-κB signalling, cells were then exposed to vehicle (DMSO; 0.05% (v/v)) or increasing concentrations of compounds (0.01–30 µM) for 1 h prior to treatment with TNF⍺ (20 ng/mL) for 30 min. Whole-cell extracts were prepared, and the status of IκB⍺, phospho-p65 (Ser536), p65, and phospho-p105 ([…]) was also assessed by Western blotting.
Each figure/panel of Western blotting data represents one of at least three separate experiments. Western blots were scanned and imaged using Adobe Photoshop 5.0.2 software and polypeptide bands were semi-quantified by scanning densitometry using the Scion Image program. Data were normalised to fold expression/inhibition relative to ‘agonist plus vehicle’ treatment and expressed as mean ± s.e.m. […]
Figure 14 Compound 5r [SU1261] inhibits LTα1β2-stimulated p100 phosphorylation (Ser866/870) but not TNFα-stimulated IkBα degradation, phosphorylation of p65 (Ser536), nor phosphorylation of p105 (Ser932) in PC-3M prostate cancer cells. […] (0.1–10 µM) for 1 h prior to treatment with LTα1β2 (15 ng/mL) for 4 h, and phospho-p100 (Ser866/870) in whole-cell extracts was assessed by Western blotting. […] (0.1–10 µM) for 1 h prior to treatment with TNFα (10 ng/mL) for 30 min, and IkBα degradation, phospho-p65 (Ser536), phospho-p105 (Ser932), and p65 expression in whole-cell extracts were assessed by Western blotting. […] Normalised data (n = 3) from semi-quantitative scanning densitometry were plotted relative to ‘agonist plus vehicle’ (LTα1β2 plus DMSO), and IC50 values were established by curve fitting using the Hill equation (see Figure S1D).

Data set [3] has as its system p65 (Ser536) phosphorylation in PC-3M cells. The data set is described as follows: TNFα-stimulated p65 (Ser536) phosphorylation, Western blotting. It counts as cell-based. The following applies: 0.1–10 µM. Here is the method:
as §1, §2
(§3) Each figure/panel of Western blotting data represents one of at least three separate experiments. Western blots were scanned and imaged using Adobe Photoshop 5.0.2 software and polypeptide bands were semi-quantified by scanning densitometry using the Scion Image program. Data were normalised to fold expression/inhibition relative to ‘agonist plus vehicle’ treatment and expressed as mean ± s.e.m. IC50 values were established by curve fitting using the Hill equation. […]

Data set [4] concerns p105 (Ser932) phosphorylation in PC-3M cells. The data set is described as follows: TNFα-stimulated p105 (Ser932) phosphorylation, Western blotting. It counts as cell-based. The conditions noted are these: 0.1–10 µM. As to the method: as §1, §2, §3
A short description of a further data set: Turbidimetric solubility. Format: physicochemical. The conditions noted are these: pH 7.4, aqueous buffer, kinetic from dmso stock, 0.01 M phosphate-buffered saline pH7.4. As to the method:
Pharmacokinetic studies were contracted to Sygnature Discovery Limited. Turbidimetric Solubility was determined by diluting compound solutions (1 μM, 3 μM, 10 μM, 30 μM, 100 μM) prepared in DMSO into 0.01 M phosphate-buffered saline pH7.4. Turbidimetry was used as the endpoint by measuring absorbance at 620 nm.

A further data set concerns the target Blk(h) (Homo sapiens, UniProt P51451). The data set is described as follows: kinase panel. Format: biochemical. An outline of the steps:
(§4)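 Percentage inhibition was recorded for each compound against a broad kinase panel of 231 enzymes. Because of its close structural resemblance to another analogue, one compound was screened against 98 chosen kinases.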

A further data set deals with EphA5(h) (Homo sapiens, UniProt P54756). The data set is described as follows: kinase panel. It counts as biochemical. Summed up:
as §4

The target of a further data set is LOK(h) (Homo sapiens, UniProt O94804). The data set is described as follows: kinase panel. It counts as biochemical. An outline of the steps:
as §4

Another data set deals with MELK(h) (Homo sapiens, UniProt Q14680). The data set is described as follows: kinase panel. Format: biochemical. Summed up:
as §4

Another data set has as its target PASK(h) (Homo sapiens, UniProt Q96RG2). The data set is described as follows: kinase panel. It counts as biochemical. Summed up:
as §4

Another data set concerns the target PKCβI(h) (Homo sapiens, UniProt P05771). The data set is described as follows: kinase panel. It counts as biochemical. An outline of the steps:
as §4

The target in the next data set is PKG1α(h) (Homo sapiens, UniProt Q13976). The data set is described as follows: kinase panel. Format: biochemical. Summed up:
as §4

Another data set addresses Pim-2(h) (Homo sapiens, UniProt Q9P1W9). The data set is described as follows: kinase panel. It counts as biochemical. An outline of the steps: as §4
The target in a further data set is SAPK2a(h) (Homo sapiens, UniProt Q16539). The data set is described as follows: kinase panel. It counts as biochemical. Summed up:
as §4

For a further data set, the target named is mTOR/FKBP12(h) (Homo sapiens, UniProt P42345). The data set is described as follows: kinase panel. It counts as biochemical. Summed up:
as §4

The target of another data set is p70S6K(h) (Homo sapiens, UniProt P23443). The data set is described as follows: kinase panel. Format: biochemical. Summed up: as §4
For the next data set, the system named is MLCK(h). The data set is described as follows: kinase panel. The following applies: 1 μM. It counts as biochemical, human. The source says:
We profiled three compounds from the series across the kinome (Table S1).
Ta b l e S1. The % inhibition of compounds 4, 5r [SU1261], and 6g [SU1349] against a
panel of kinase enzymes. We proϐiled three compounds from the series across 231
kinases. For SU1349, given its structural similarity with SU1261, we selected 98 from the
Tested kinase % inhibiƟon

Blk(h), sequence (P51451 whole entry): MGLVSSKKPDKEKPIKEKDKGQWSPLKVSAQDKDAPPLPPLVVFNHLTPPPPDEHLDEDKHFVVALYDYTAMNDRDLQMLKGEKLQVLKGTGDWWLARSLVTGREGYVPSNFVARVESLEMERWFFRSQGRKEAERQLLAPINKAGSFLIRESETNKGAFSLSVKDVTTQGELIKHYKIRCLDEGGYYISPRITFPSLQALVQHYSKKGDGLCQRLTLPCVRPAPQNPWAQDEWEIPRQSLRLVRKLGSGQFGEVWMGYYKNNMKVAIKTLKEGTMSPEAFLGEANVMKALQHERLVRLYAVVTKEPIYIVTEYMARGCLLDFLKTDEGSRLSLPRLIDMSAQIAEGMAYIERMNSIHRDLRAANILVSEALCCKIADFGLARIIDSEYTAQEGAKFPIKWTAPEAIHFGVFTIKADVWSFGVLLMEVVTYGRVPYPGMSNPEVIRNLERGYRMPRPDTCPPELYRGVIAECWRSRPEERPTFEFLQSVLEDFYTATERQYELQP
mTOR/FKBP12(h), sequence (P42345 1362-2549 limits assumed): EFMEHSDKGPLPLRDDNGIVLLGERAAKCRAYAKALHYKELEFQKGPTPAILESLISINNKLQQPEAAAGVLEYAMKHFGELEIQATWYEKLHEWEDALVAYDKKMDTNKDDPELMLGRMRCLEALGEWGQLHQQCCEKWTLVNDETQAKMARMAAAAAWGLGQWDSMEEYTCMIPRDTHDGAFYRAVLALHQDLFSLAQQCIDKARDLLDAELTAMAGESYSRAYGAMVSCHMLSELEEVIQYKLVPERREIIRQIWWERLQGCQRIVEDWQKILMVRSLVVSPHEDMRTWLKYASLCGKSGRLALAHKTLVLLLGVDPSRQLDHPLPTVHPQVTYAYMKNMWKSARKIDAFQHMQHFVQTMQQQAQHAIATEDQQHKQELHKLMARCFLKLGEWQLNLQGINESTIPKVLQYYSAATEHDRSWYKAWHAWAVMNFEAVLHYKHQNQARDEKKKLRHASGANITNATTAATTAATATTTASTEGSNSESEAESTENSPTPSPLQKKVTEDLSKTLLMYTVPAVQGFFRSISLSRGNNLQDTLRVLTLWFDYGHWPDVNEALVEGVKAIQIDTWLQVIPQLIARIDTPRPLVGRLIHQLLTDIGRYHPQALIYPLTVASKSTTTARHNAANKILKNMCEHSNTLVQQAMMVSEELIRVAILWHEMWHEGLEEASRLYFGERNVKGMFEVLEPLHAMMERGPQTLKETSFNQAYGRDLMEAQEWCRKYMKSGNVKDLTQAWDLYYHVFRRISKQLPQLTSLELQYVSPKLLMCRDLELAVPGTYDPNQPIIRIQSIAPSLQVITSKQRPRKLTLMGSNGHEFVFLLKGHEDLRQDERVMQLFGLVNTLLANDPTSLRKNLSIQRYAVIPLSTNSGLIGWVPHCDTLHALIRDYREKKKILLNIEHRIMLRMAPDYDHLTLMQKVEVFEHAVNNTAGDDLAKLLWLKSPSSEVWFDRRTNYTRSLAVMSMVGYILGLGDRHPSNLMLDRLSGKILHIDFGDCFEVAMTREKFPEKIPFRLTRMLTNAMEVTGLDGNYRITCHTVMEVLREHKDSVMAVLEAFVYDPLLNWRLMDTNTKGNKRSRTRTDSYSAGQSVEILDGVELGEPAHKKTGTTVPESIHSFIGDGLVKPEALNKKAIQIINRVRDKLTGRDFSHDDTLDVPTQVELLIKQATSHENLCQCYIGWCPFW
PKG1α(h), sequence (Q13976 whole entry): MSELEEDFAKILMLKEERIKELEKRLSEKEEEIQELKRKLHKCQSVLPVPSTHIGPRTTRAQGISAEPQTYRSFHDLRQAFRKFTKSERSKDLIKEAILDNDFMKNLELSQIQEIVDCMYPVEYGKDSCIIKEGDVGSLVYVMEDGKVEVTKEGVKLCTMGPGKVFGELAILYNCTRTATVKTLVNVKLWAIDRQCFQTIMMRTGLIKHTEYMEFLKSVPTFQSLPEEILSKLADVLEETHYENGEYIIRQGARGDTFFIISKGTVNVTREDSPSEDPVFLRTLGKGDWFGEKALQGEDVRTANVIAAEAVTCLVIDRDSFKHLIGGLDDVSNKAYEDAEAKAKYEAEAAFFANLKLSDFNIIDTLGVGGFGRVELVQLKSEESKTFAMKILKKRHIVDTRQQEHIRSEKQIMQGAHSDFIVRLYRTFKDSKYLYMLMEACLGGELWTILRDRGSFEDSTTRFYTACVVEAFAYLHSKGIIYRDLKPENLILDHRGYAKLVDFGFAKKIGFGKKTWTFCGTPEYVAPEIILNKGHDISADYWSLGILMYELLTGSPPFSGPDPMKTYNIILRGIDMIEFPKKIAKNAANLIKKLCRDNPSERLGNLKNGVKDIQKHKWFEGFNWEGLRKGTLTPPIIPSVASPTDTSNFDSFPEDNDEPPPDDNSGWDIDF
SAPK2a(h), sequence (Q16539 whole entry): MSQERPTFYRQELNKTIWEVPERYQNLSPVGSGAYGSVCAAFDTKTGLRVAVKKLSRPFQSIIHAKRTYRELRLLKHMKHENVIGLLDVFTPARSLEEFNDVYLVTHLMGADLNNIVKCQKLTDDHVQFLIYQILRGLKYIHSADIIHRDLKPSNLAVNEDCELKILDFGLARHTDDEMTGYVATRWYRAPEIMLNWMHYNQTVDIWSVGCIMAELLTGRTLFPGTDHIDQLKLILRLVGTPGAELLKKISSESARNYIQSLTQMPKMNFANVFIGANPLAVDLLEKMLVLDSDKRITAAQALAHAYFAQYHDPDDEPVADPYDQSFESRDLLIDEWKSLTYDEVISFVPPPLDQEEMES
EphA5(h), sequence (P54756 25-1037): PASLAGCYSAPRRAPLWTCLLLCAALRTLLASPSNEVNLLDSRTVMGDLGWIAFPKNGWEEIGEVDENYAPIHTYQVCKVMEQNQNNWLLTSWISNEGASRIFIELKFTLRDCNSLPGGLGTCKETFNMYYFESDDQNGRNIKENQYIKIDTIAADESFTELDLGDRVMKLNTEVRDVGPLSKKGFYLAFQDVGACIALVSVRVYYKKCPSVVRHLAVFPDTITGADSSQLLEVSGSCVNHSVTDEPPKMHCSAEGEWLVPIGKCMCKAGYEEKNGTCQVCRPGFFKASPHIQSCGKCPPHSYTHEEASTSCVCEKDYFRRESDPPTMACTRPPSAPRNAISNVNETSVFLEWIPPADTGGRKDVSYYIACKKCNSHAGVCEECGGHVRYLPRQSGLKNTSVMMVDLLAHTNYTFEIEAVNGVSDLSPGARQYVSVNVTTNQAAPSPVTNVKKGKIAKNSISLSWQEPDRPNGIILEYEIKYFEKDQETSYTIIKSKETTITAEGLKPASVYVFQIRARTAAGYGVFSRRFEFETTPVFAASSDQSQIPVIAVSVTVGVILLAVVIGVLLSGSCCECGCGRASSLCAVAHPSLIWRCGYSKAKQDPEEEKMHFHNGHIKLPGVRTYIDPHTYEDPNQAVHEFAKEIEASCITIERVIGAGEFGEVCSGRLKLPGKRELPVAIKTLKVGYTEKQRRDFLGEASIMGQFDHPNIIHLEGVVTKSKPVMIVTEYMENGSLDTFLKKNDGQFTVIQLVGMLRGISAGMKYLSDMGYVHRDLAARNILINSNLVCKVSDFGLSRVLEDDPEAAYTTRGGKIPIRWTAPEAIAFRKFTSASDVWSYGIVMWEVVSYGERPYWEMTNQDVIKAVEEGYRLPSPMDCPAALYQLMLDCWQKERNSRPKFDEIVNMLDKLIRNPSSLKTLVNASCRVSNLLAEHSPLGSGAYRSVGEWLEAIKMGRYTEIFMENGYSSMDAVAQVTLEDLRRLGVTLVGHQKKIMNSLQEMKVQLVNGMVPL
MELK(h), sequence (Q14680 whole entry): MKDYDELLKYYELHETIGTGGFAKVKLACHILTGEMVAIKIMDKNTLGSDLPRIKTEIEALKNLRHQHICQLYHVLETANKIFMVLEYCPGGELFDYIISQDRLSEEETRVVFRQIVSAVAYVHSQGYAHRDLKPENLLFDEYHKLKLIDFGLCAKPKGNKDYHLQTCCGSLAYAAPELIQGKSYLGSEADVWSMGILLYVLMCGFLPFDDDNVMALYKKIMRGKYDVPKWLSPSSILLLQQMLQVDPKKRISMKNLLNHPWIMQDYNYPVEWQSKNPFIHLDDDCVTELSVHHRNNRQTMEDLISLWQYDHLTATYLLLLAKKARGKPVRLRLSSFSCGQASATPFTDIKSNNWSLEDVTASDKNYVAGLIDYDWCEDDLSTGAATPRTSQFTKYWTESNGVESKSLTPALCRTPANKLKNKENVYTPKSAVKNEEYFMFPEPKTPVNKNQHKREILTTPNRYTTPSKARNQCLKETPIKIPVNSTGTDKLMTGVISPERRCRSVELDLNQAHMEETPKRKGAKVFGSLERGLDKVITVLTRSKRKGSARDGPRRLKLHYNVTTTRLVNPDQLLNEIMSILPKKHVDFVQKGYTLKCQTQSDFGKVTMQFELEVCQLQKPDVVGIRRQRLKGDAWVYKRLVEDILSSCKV
Pim-2(h), sequence (Q9P1W9 whole entry): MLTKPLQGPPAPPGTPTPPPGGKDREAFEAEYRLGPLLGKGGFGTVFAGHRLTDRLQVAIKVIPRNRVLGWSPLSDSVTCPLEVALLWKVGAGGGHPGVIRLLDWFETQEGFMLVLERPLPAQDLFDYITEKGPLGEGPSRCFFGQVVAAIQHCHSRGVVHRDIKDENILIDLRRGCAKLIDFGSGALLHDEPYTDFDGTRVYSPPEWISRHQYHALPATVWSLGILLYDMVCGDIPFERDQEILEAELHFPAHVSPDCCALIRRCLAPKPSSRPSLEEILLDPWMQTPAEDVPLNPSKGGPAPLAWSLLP

In the case of `Nc1n[nH]c2ccc(-c3ccnc4[nH]c(-c5ccnc(OCc6ccccc6)c5)cc34)cc12` [Compound 6g [SU1349]], the 50% inhibitory concentration (IC50) in data set [1] was determined as 200 nM. Further, the “effect on TNFα-stimulated IκBα degradation” value in data set [2] is recorded as “no impact”. The “impact on IKKβ-mediated canonical NF-κB signalling” value in data set [2] (prostate cancer cell line (PC-3M), at 10 μM) is reported as “no detectable impact”. Also, in [3], the “effect on TNFα-stimulated p65 (Ser536) phosphorylation” value was “no impact”. Moreover, the “effect on TNFα-stimulated p105 (Ser932) phosphorylation” value in data set [4] was “no impact”. In “Turbidimetric solubility”, this molecule came in with a solubility of 20 µM (≈ 8.65 µg/mL).
For `Nc1n[nH]c2ccc(-c3ccnc4[nH]c(-c5cccc(OCc6ccccc6)c5)cc34)cc12` [Compound 5r [SU1261]], in data set [1], the IC50 came to 570 nM. In [2], the “effect on TNFα-stimulated IκBα degradation” value is recorded as “did not impact”. Moreover, the “effect on TNFα-stimulated p65 (Ser536) phosphorylation” value in data set [3] is “did not impact”. Moreover, the “effect on TNFα-stimulated p105 (Ser932) phosphorylation” value in data set [4] was “no significant concentration-dependent inhibition”. In addition, the solubility in “Turbidimetric solubility” was under 1 µM. In addition, the inhibition at 1 µM against Blk(h) was -4%; against EphA5(h), 8%; at LOK(h), 51%; against MELK(h), 13%; on PASK(h), 16%; on PKCβI(h), -6%. The inhibition at 1 µM against PKG1α(h) is 30%; against Pim-2(h), 5%; at SAPK2a(h), 0%; against mTOR/FKBP12(h), 2%; on p70S6K(h) it was -15%. The “% inhibition MLCK(h)” value in the data set on MLCK(h) is listed as -10%.
With `Nc1n[nH]c2ccc(-c3ccnc4[nH]c(-c5ccccc5)cc34)cc12` [Compound 4], the inhibition at 1 µM at Blk(h) is 37%; against EphA5(h), 19%; at LOK(h), 67%; at MELK(h), 41%; against PASK(h), 65%; against PKCβI(h), -2%. Moreover, the inhibition at 1 µM on PKG1α(h) is 29%; on Pim-2(h) it was 25%; on SAPK2a(h) it was -16%; on mTOR/FKBP12(h), 3%; against p70S6K(h), 33%. In the data set with MLCK(h), the “% inhibition MLCK(h)” value came to 0%.
